The target in data set [1] is T1, LPA2 (Homo sapiens, UniProt Q9HBW0).
T1 construct: expressed in transfected cells
Description: Ca2+ mobilization assay, agonist activity at LPA2. It is filed as cell-based. To be noted: 10 μM compound. On the procedure: The agonist activity at LPA2 receptors was determined at 10 μM concentration for all final compounds as previously described.[18]
Figure S1. Representative snapshots showing the lack of significant agonist activity of selected compounds. (A) 1; (B) 13; (C) 54; and (D) Ki16425. (E) Graphs show the agonist activity induced […]
stably expressing LPA2 receptor were plated on collagen-coated black-wall clear-bottom 96-well plates (Corning) at a density of 50000 cells/well and cultured overnight. The culture medium was then replaced with Fluo-4 NW dye loading solution containing 2.5 µM of probenecid and incubated […]
for 30 minutes at 37 °C followed by an additional 30 minutes at rt. Fluorescence changes were registered in a FluoStar Optima instrument (BMG Labtech) at 525 nm using an excitation wavelength of 494 nm. Each well was monitored for 240 s. 20 µL of the test compound from a 6x stock solution in assay buffer were added after 120 s of starting the measurement. Ca2+ transient increase was quantified by calculating the difference between maximum and baseline values for each […]
Graphs shown are representative of two to three independent experiments.

Data set [2] concerns the target T2, LPA3 (Homo sapiens, UniProt Q9UBY5).
T2 sequence (Q9UBY5 1-353): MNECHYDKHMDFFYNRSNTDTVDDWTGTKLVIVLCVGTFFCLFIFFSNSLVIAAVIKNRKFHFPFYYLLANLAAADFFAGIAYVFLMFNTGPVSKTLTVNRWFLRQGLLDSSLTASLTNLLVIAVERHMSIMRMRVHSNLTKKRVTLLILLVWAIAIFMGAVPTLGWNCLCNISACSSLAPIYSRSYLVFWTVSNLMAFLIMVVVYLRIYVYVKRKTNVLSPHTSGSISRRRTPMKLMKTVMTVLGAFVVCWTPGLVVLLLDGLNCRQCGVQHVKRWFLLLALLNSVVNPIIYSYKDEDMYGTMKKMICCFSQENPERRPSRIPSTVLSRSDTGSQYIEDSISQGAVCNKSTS
Kind of data set: cell-based. Conditions: for Emax (%) LPA3: maximum blockade of activation induced by 10 μM LPA (18:1) at 10 μM compound, N.E. = no effect at 10 μM. The procedure: (§1) Cells stably expressing the corresponding LPA1–3 receptor were grown as described previously.[18] Changes in intracellular calcium levels were measured by using the fluorescent calcium sensitive dye Fluo-4 NW (Invitrogen). RH7777 cells or B103 cells were plated on poly-D-lysine or collagen coated, respectively, black-wall clear-bottom 96-well plates (Corning) at a density of 50 000 cells/well and cultured overnight. The culture medium was then replaced with 100 μL of Fluo-4 NW dye loading solution containing 2.5 μM of probenecid and incubated for 30 min at 37 °C followed by an additional 30 min at rt. […] Fluorescence changes were registered in a FluoStar Optima instrument (BMG Labtech) at 525 nm using an excitation wavelength of 494 nm. […] The data presented are from two to four independent experiments carried out in triplicate or quadruplicate. Dose–response curves were generated and IC50 values calculated by nonlinear regression analysis using Prism software version 5 (GraphPad Software Inc., San Diego, CA, USA).

For data set [3], the target named is T3, LPA1 (Homo sapiens, UniProt Q92633). Kind of data set: cell-based. Conditions: for Emax (%) LPA1: maximum blockade of activation induced by 10 μM LPA (18:1) at 10 μM compound, N.E. = no effect at 10 μM. Details: Emax: dose or concentration left out as unconfirmed. The procedure:
as §1

The target of data set [4] is T1, LPA2. Description: Ca2+ mobilization assay, antagonist activity at LPA2. It is filed as cell-based. Details: Emax: dose or concentration left out as unconfirmed. Conditions: for IC50: antagonism of 10 μM LPA, mean ± s.e.m. The procedure:
as §1
Figure S2. Dose response curves for compounds 13, 44, 53, 54, and 55. B103 cells stably expressing LPA2 receptor were incubated with different concentrations of the compound under study and […]
Curves were generated with PRISM software version 5 (GraphPad Software Inc, San Diego, CA, USA) using nonlinear regression analysis. Each data point corresponds to the mean±SEM of two to four independent experiments carried out in triplicate or quadruplicate.

Data set [5] in a line: Metabolic stability in mouse liver microsomes. Conditions: male, CD-1, mouse, liver microsomes (pooled), 1 mg/mL protein, NADPH, 37 °C, read-out: stability (t1/2, min) MLMs. It is filed as in vitro ADME. On the procedure: (§2) Reactions were initiated by the addition of a suspension of mouse liver microsomes (MLMs) (male CD-1 mice pooled, Sigma-Aldrich) or human liver microsomes (HLMs) (male human pooled, Sigma-Aldrich), respectively, at a final protein concentration of 1 mg/mL. […] Aliquots of 100 μL were quenched at time zero and at seven points ranging to 2 h (MLM) or 4 h (HLM) by pouring into 100 μL of ice-cold acetonitrile. […] The relative disappearance of the compound under study over the course of the incubation was monitored by HPLC-MS using SIM mode. Concentrations were quantified by measuring the area under the peak ([M + H]^+) normalized with an internal standard and converted to the percentage of compound remaining, using the time zero peak area value as 100%. The natural logarithm of the remaining percentage versus time data for each compound was fit to a linear regression, and the slope was used to calculate the degradation half-life (t1/2).

The nature of data set [6]: Parallel artificial membrane permeability assay (PAMPA). It is filed as in vitro ADME. To be noted: PBS pH 7.4, 5 h, rt. The procedure: These studies were carried out as previously described with minor modifications.[41],[42] The assessment of the membrane permeability of synthesized compounds and propranolol and metoprolol as reference compounds was performed in a commercially available 96-well Corning Gentest precoated PAMPA plate system (Cultek S.L.U., Spain). Prior to use, the precoated PAMPA plate system was warmed to rt for 30 min and 300 μL of 200 μM solution of tested compound in 2% DMSO in PBS (pH 7.4) were added into wells in the receiver (donor) plate. Then, 200 μL of PBS were added into wells in the filter (acceptor) plate. The filter plate was placed on the receiver plate by slowly lowering the precoated PAMPA plate until it sits on the receiver plate. The assembly was incubated at rt for 5 h, and then buffer samples were collected carefully from each plate. The final concentrations of compound in both donor and acceptor wells were analyzed by HPLC-MS and quantification was estimated by using the peak area integration normalized with an internal standard. Permeability value of the compounds was calculated using the following formula: P (cm/s) = {−ln[1 – CA(t)/Ceq]}/[A(1/VD + 1/VA)t], where A = filter area (0.3 cm^2), VD = donor well volume (0.3 mL), VA = acceptor well volume (0.2 mL), t = incubation time (s), CA(t) = compound concentration (μM) in the acceptor well at time t, CD(t) = compound concentration (μM) in donor well at time t, and Ceq = [CD(t)VD + CA(t)VA]/(VD + VA). Assays were performed in duplicate, and the compound was tested in two different plates on different days.

Data set [7] is described as follows: Metabolic stability in human liver microsomes. It is filed as in vitro ADME. Conditions: male, liver microsomes (pooled), 1 mg/mL protein, NADPH, 37 °C, read-out: stability (t1/2, min) HLMs. The procedure: as §2
Data set [8] has as its target T3, LPA1. Details: expressed in transfected cells. To be noted: cited from earlier work.
Data set [9] concerns the target T2, LPA3. Details: expressed in transfected cells. Conditions: cited from earlier work.
Data set [10] addresses T1, LPA2. To be noted: cited from earlier work.

Where two headings read alike, the source gives them in different places. Bounds are passed on as bounds.

T3 sequence (Q92633 whole entry, species assumed): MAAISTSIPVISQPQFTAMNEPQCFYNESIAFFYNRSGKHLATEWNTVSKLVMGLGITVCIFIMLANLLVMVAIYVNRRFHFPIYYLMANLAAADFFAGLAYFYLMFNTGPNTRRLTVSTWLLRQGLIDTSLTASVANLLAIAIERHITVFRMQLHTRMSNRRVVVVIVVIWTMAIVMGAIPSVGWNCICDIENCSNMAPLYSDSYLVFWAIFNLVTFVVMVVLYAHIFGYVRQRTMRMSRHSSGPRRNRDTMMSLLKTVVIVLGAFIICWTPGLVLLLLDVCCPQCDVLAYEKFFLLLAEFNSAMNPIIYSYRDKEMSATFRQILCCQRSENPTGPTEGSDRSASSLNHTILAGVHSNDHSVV
T1 sequence (Q9HBW0 whole entry, species assumed): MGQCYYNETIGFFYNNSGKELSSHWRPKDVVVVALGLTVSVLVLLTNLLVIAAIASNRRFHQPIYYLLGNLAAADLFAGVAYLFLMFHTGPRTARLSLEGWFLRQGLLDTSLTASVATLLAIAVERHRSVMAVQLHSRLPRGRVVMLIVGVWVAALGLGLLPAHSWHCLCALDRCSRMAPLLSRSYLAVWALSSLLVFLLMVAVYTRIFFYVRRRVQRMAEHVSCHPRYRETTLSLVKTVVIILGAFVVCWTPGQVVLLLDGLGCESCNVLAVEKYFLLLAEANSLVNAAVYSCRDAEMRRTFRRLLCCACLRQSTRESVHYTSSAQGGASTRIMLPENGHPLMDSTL

As for `Cc1[nH]nc(-c2ccc(OCC(=O)O)cc2O)c1Oc1ccccc1Cl` [Compound 1], the “agonist activity at LPA2 receptor” value at LPA2 [1] is “lack and absence of significant agonist activity”. In addition, the “Emax (%) LPA3” value at LPA3 [2] is “N.E”. In addition, the “Emax (%) LPA1” value on LPA1 [3] is reported as “N.E.^c”. The molecule also returned an Emax at 10 µM at LPA2 [4] of 48 ± 9%.
With `Cc1[nH]nc(-c2ccc(OCC(=O)O)cc2O)c1Oc1ccc(Cl)c(Cl)c1` [Compound 12, {4-[4-(3,4-Dichlorophenoxy)-5-methyl-1H-pyrazol-3-yl]-3-hydroxyphenoxy}acetic Acid], the melting point was > 240 °C (dec.). Also, the “Emax (%) LPA3” value at LPA3 [2] was “N.E”. The “Emax (%) LPA1” value at LPA1 [3] is “N.E”. This molecule also had a maximal effect (Emax) at 10 µM on LPA2 [4] of 58 ± 3%.
As to `Cc1[nH]nc(-c2ccc(OCC(=O)O)cc2O)c1Oc1ccc(Cl)cc1Cl` [Compound 13, {4-[4-(2,4-Dichlorophenoxy)-5-methyl-1H-pyrazol-3-yl]-3-hydroxyphenoxy}acetic Acid], the melting point was > 196 °C (dec.). In addition, in data set [5], the half-life at 1 μM was about 16 min. In addition, the “P (cm/s), permeability value” in data set [6] (200 μM) was 0.1 × 10^–6 cm/s. The Papp at 5 h, 200 μM in [6] (pH 7.4, PAMPA, read-out: P (cm/s), permeability value) was 0.11 ×10⁻⁶ cm/s. Also, the “agonist activity at LPA2 receptor” value on LPA2 [1] is recorded as “lack”. The “Emax (%) LPA3” value at LPA3 [2] is reported as “N.E”. Besides, the “Emax (%) LPA1” value at LPA1 [3] is “N.E. and N.E. ^c”. For the same molecule, on LPA2 [4], the Emax at 10 µM was 84 ± 3% and the IC50 is 5.5 µM. Also, the half-life at 5 μM in data set [7] was about 60 min.
Consider `Cc1[nH]nc(-c2ccc(O)cc2O)c1Oc1ccc(Cl)cc1Cl` [Compound 42, 4-[4-(2,4-Dichlorophenoxy)-5-methyl-1H-pyrazol-3-yl]benzene-1,3-diol], for which the melting point was 206 to 208 °C. Moreover, the “Emax (%) LPA3” value at LPA3 [2] is “N.E”. Also, the “Emax (%) LPA1” value at LPA1 [3] was “N.E”. At LPA2 [4], the Emax at 10 µM worked out at 16 ± 7%.
Consider `COc1ccc(-c2n[nH]c(C)c2Oc2ccc(Cl)cc2Cl)c(O)c1` [Compound 43, 2-[4-(2,4-Dichlorophenoxy)-5-methyl-1H-pyrazol-3-yl]-5-methoxyphenol], for which the melting point lay in the range of 220 to 222 °C. In addition, the “Emax (%) LPA3” value on LPA3 [2] is “N.E”. Also, the “Emax (%) LPA1” value at LPA1 [3] is given as “N.E”. Further, the Emax at 10 µM on LPA2 [4] was determined as 9 ± 5%.
In the case of `COC(=O)COc1ccc(-c2n[nH]c(C)c2Oc2ccc(Cl)cc2Cl)c(O)c1` [Compound 44, Methyl {4-[4-(2,4-dichlorophenoxy)-5-methyl-1H-pyrazol-3-yl]-3-hydroxyphenoxy} Acetate], the melting point was > 210 °C (dec.). On LPA3 [2], the “Emax (%) LPA3” value is recorded as “N.E”. Also, the “Emax (%) LPA1” value at LPA1 [3] is “N.E”. Also, on LPA2 [4], the Emax at 10 µM came to 74 ± 7% and 11.6 µM corresponded to half-maximal inhibition (IC50).
In the case of `Cc1[nH]nc(-c2ccc(OCC(=O)O)cc2O)c1Oc1ccc(F)cc1F` [Compound 53, {4-[4-(2,4-Difluorophenoxy)-5-methyl-1H-pyrazol-3-yl]-3-hydroxyphenoxy}acetic Acid], the melting point is > 210 °C (dec.). The “Emax (%) LPA3” value at LPA3 [2] is reported as “N.E”. Besides, the “Emax (%) LPA1” value at LPA1 [3] was “N.E”. In addition, on LPA2 [4], the Emax was 65 ± 11% and it took 5.1 µM to reach half-maximal inhibition (IC50).
Turning to `Cc1[nH]nc(-c2ccc(OCc3nnn[nH]3)cc2O)c1Oc1ccc(F)cc1F` [Compound 55], the melting point is > 210 °C (dec.). Besides, the “Emax (%) LPA3” value on LPA3 [2] was “N.E”. The “Emax (%) LPA1” value on LPA1 [3] is listed as “N.E”. Further, on LPA2 [4], the Emax came out at 77 ± 5%.
Regarding `Cc1csc2c(N[C@@H](C)CN3CCN(S(=O)(=O)c4ccc(Cl)c(Cl)c4)CC3)ncnc12` [Compound C35], the IC50 on LPA1 [8] and at LPA3 [9] was over 50 µM each time.
Regarding `O=C(O)/C=C/C(=O)Nc1ccc(Oc2cccc(Oc3ccc(NC(=O)/C=C/C(=O)O)cc3)c2)cc1` [Compound H2L5186303], the IC50 was 1.23 µM at LPA1 [8] and 27.3 µM at LPA3 [9].
With `Cc1noc(-c2ccc(CSCCC(=O)O)cc2)c1NC(=O)OC(C)c1ccccc1Cl` (stereo not drawn) [Ki16425, reference compound], the IC50 was 6.5 µM at LPA2 [10]; 0.34 µM at LPA1 [8]; 0.93 µM at LPA3 [9]; 1.6 µM at LPA3 [2] (read-out: IC50 (μM) LPA3, antagonism of 10 μM LPA, mean ± s.e.m.); 0.8 µM on LPA1 [3] (read-out: IC50 (μM) LPA1, antagonism of 10 μM LPA, mean ± s.e.m.); 1.2 µM against LPA2 [4]. Also, on LPA2 [1], the “agonist activity at LPA2 receptor” value is on record as “lack”. The figures for the Emax on LPA3 [2] (read-out: Emax (%) LPA3) and at LPA1 [3] (read-out: Emax (%) LPA1) were 99 ± 3% and 97 ± 4%, respectively. The same molecule showed an Emax at 10 µM on LPA2 [4] of 92 ± 3%.

These data come from paper PMC9421655, “Novel Antagonist of the Type 2 Lysophosphatidic Acid Receptor (LPA2), UCM-14216, Ameliorates Spinal Cord Injury in Mice” (Journal of Medicinal Chemistry, 2022).
